Reference: US8008346B2, “Chemotherapeutic agents for inhibition of protein translation” (The Royal University for the Advancement of Learning/McGill …, priority 2006, dated 2011)

Tests used:
eIF4AIf [1] = target: T1, eIF4AIf (Mus musculus, UniProt P60843); test: RNA-dependent ATPase assay with recombinant eIF4AIf; type: biochemical, murine; conditions: 2.5 μM poly (U); relative to vehicle (0.5% DMSO)
T1 construct: inferred only from the Ni-NTA purification; made in house; host or cells: Escherichia coli BL21 (DE3) codon+
T1 sequence (P60843 whole entry): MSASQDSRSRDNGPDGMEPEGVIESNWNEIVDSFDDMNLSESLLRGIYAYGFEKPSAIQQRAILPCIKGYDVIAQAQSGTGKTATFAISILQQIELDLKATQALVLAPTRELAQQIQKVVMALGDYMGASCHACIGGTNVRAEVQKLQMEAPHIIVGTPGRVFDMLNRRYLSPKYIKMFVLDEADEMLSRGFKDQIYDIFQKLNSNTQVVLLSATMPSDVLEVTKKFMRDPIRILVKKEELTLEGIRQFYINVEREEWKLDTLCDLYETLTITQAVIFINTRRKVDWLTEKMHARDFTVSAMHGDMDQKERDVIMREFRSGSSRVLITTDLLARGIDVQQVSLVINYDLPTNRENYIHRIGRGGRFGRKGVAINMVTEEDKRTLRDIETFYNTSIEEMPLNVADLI
Protocol: (§1) FIG. 7. Effects of hippuristanol on ATP hydrolysis, ATP binding, and RNA binding activities of eIF4A. A. Hippuristanol inhibits eIF4AIf RNA-dependent ATPase activity. The rate of ATP hydrolysis as a function of hippuristanol concentration is plotted relative to the rate obtained in the presence of vehicle (0.5% DMSO). ATP hydrolysis was measured in the presence of 2.5 μM poly (U) and monitored by thin layer chromatography. […] Samples were resolved by SDS-PAGE and subjected to autoradiography. C. The RNA binding activity of eIF4AIf is inhibited by hippuristanol. Oxidized ^32P-cap labeled CAT mRNA was incubated with recombinant eIF4AIf in the absence (lane 2) or presence of ATP (lanes 1, 3-6), 0.6 mM m^7GDP (lane 3), 0.6 mM GDP (lane 4), or 50 μM hippuristanol (lane 6). Following treatment with RNase A, samples were resolved by SDS-PAGE and subjected to autoradiography. The asterisk denotes the position of migration of a ˜30 kDa contaminant in the recombinant eIF4AIf preparation used as an internal loading reference. D. The RNA binding activity of eIF4Ac is inhibited by hippuristanol. Oxidized ^32P-cap labeled CAT mRNA was incubated with 0.7 μg of native eIF4F in the absence (lane 1) or presence (lane 2) of 50 μM hippuristanol. […]
(§2) Recombinant eIF4AI Purification and Assays. […] Quantifications were performed on a Fujix BAS2000 phosphoimager with a Fuji imaging screen. […]

eIF4Ac [2] = target: T2, eIF4Ac (Homo sapiens, UniProt P60842); test: Crosslinking of oxidized 32P-cap labeled CAT mRNA to native eIF4F (RNA binding); conditions: 50 μM, 0.7 μg native eIF4F
T2 sequence (P60842 whole entry): as the sequence (P60843 whole entry) above
T2 sequence (P06730 whole entry partner): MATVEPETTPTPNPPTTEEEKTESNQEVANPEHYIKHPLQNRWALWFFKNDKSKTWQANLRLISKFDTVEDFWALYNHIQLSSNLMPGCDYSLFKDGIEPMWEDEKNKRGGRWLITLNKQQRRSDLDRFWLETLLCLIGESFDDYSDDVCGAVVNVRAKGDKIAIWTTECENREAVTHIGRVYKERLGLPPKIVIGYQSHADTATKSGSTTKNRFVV
T2 sequence (Q04637 whole entry partner): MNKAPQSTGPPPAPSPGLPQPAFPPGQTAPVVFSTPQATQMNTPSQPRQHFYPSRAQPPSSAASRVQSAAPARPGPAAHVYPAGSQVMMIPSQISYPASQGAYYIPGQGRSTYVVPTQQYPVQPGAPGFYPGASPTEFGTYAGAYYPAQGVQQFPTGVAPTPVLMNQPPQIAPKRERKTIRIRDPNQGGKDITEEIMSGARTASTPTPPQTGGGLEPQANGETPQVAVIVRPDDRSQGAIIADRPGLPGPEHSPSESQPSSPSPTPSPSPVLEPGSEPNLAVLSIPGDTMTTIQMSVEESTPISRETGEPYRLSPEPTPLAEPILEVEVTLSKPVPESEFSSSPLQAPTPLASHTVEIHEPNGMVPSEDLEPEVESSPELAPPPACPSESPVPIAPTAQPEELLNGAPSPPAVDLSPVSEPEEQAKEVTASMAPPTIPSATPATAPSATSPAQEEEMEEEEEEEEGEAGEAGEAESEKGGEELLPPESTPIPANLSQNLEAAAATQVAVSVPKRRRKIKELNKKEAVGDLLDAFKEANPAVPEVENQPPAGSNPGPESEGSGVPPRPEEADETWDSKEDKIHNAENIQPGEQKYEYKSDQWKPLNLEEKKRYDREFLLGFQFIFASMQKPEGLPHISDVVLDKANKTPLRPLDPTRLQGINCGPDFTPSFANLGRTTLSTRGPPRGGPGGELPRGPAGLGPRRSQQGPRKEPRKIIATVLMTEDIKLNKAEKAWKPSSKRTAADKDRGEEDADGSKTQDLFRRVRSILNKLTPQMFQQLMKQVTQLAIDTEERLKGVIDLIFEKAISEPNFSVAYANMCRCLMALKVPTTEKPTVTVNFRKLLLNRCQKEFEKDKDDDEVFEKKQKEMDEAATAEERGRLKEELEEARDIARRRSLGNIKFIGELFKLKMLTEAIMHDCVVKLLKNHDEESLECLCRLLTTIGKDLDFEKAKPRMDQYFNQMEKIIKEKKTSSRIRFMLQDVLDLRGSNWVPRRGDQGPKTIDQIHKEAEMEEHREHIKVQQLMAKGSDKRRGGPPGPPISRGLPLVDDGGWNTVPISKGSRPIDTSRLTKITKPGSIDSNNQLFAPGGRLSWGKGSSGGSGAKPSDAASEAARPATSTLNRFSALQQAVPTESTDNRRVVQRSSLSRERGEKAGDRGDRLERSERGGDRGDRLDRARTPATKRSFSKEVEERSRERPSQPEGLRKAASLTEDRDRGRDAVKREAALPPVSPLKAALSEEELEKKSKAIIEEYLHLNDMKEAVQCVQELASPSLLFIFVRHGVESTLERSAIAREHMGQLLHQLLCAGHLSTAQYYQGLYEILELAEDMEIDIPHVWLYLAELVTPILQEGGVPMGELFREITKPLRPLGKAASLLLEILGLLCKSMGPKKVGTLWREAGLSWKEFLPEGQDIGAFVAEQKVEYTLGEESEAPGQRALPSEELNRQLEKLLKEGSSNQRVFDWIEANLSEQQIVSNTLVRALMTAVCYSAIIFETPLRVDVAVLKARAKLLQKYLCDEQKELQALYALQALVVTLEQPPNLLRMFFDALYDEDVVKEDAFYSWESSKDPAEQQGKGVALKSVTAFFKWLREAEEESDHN
Protocol: as §1
Ribosome Binding and mRNA Crosslinking. […] Fractions of 500 μl were collected and radioactivity was determined by scintillation counting. […]

eIF4AIf [3] = target: T1, eIF4AIf; test: Helicase (unwinding) assay with RNA-1/RNA-11 duplex; type: biochemical, murine; conditions: 50 μM
Protocol: (§3) FIG. 8. Selective inhibition of eIF4A activity by hippuristanol. A. Hippuristanol inhibits eIF4AIf-mediated helicase activity. Unwinding reactions were performed with RNA-1/RNA-11 duplex and recombinant eIF4AIf or Ded1p. The presence of 50 μM hippuristanol in the reaction is indicated above the panel. […] Double-stranded RNA duplex and single-stranded RNA molecules are schematically represented to the left of the panel. […] In vitro splicing reactions were performed with the AdML pre-mRNAs as previously described (48). AdML pre-mRNA was incubated with nuclear extracts in the presence of increasing amounts of hippuristanol (2 μM [lane4], 10 μM [lane 5] and 50 μM [lane 6]). Reaction products were resolved on 15% polyacrylamide/8M urea gels and subjected to autoradiography. The position of migration of the pre-mRNA and spliced product is denoted to the right. C. Rescue of hippuristanol-induced inhibition with recombinant eIF4AIf. […] A graphical representation from three experiments is provided below. Translational efficiency was calculated relative to luciferase values obtained from control translations containing vehicle (0.5% DMSO).
as §2

[4] = system: in vitro splicing reactions; test: In vitro splicing of AdML pre-mRNA in nuclear extracts; type: biochemical; conditions: 2 μM, 10 μM and 50 μM
Protocol: as §3

eIF4Ac [5] = target: T2, eIF4Ac; test: UV crosslinking of alpha-32P-ATP to native eIF4F; type: binding; conditions: 50 μM
Protocol: as §1, §2

eIF4Ac and eIF4B = target: T3, eIF4Ac and eIF4B (Homo sapiens, UniProt P60842); test: Chemical crosslinking of initiation factors to 32P cap-labeled mRNA; type: binding; conditions: 50 μM, in presence of ATP
T3 construct: Chemical crosslinking of initiation factor preparations to ^32P cap-labeled oxidized CAT mRNA
T3 sequence (P60842 whole entry): as the sequence (P60843 whole entry) above
T3 sequence (Q04637 whole entry partner): as the sequence (Q04637 whole entry partner) above
T3 sequence (P06730 whole entry partner): as the sequence (P06730 whole entry partner) above
Protocol: FIG. 6. Hippuristanol inhibits translation initiation. A. Hippuristanol inhibits 80S complex formation. ^32P-labeled CAT mRNA was incubated in rabbit reticulocyte lysate with cycloheximide (CHX) in the presence or absence of 50 μM hippuristanol. Complexes were resolved on glycerol gradients. Total counts recovered from each gradient and the percent mRNA bound in 80S complexes were: CAT mRNA/CHX [43,498 cpm, 22% binding] and CAT mRNA/CHX+Hipp. [45,279 cpm, 5.7% binding]. B. Hippuristanol inhibits crosslinking of eIF4Ac and eIF4B to capped mRNA. Initiation factors were chemically crosslinked to ^32P cap-labeled mRNA in the absence (lane 2) or presence of ATP (lanes 1, 3-6), 0.6 mM m^7GDP (lane 3), 0.6 mM GDP (lane 4), or 50 μM hippuristanol (lane 6). Following nuclease digestion, samples were resolved by SDS-PAGE and the gel subjected to autoradiography.
Ribosome Binding and mRNA Crosslinking. Ribosome binding assays were performed by incubating ^32P-labelled CAT mRNA in rabbit reticulocyte lysate or wheat germ extracts in the presence of: 600 μM cycloheximide (CHX), 1 mM GMP-PNP, and/or 50 μM hippuristanol or vehicle for 10 min (33). […] Fractions of 500 μl were collected and radioactivity was determined by scintillation counting. […]

[6] = system: Mahoney strain of poliovirus type 1; type: cell-based; conditions: HeLa cells, 2 pfu/cell, 80 nM
eIF4AIf [7] = target: T1, eIF4AIf; test: UV crosslinking of alpha-32P-ATP to recombinant eIF4AIf; type: binding, murine; conditions: 50 μM
Protocol: as §1, §2

C[C@H]1C[C@@]2(O[C@H]3C[C@H]4[C@@H]5CC[C@H]6C[C@H](O)CC[C@]6(C)[C@H]5[C@@H](O)C[C@]4(C)[C@H]3[C@@]2(C)O)OC1(C)C [Hippuristanol, hippuristanol]
eIF4AIf RNA-dependent ATPase activity (eIF4AIf [1]): inhibits
RNA binding activity of eIF4Ac (eIF4Ac [2]): inhibited
eIF4AIf-mediated helicase activity (eIF4AIf [3]): inhibits
in vitro splicing reactions [4]: does not inhibit
ATP crosslinking to eIF4Ac (eIF4Ac [5]): does not affect
crosslinking of eIF4Ac and eIF4B to capped mRNA (eIF4Ac and eIF4B): inhibits
eIF4GII cleavage following poliovirus infection [6]: delays
onset of poliovirus proteins during infection [6]: delays
ATP crosslinking to eIF4AIf (eIF4AIf [7]): does not affect
